This passage reports IC50 results from BindingDB's records for patent US12310975 (Arvinas Operations, 2025).

This experiment deals with B-cell lymphoma 6 protein (Homo sapiens, UniProt P41182). Kind of experiment: BCL6 TR-FRET Protocol. How it is done: Assay buffer A: 50 mM HEPES pH 7.5, 125 mM NaCl, 0.01% TritonX.Assay buffer B (made fresh): buffer A+1 mM Glutathione (or 0.5 mM DTT).Assay buffer C (made fresh): buffer B+0.03% BSA.Black Proxy plates, 96 well.15 μl final reaction volumes (BCoR-Cy5 100 nM, SA-Eu 2 nM, BCL6-avitag 2 nM).134 μM BCL6-Avitag-Biotin stock: made fresh by adding 2 μl of BCL6-Avitag-Biotin to 31.5 ml Buffer C.1 mM BCoR-Cy5 peptide (LifeTein) stock in Dimethylformamide (DMF).300 nM BCoR-Cy5 working stock: made fresh by adding 4.5 μl of the 1 mM BCoR-Cy5 peptide stock to 15 ml Buffer B.10 μM Eu-Streptavidin (Lance Eu-W1024 Streptavidin, PerkinElmer) stock solution.6 nM Eu-Streptavidin working stock: made fresh by adding 9 μl Eu-Streptavidin stock solution to 15 ml Buffer A.Compounds were diluted to 10 mM. Twenty microliters of DMSO was aliquoted to each well of the microtiter plates. From the 10 mM compound stock, 8.7 ul was aliquoted to the 20 ul DMSO and 3-fold serial dilutions (12 pt […] tritration plate, 96 well, 100% DMSO) performed. Five ul from the titration plate wells was aliquoted to 45 ul Buff C (Intermediate dilution plates, 10% DMSO).Spot 1.5 μl compound titrations to 384-well plates in duplicate, and spot 3.5 μl [8.5 nM] BCL6-bio protein to each well. The plate was mix briefly, centrifuged, and incubated for 30 minutes at room temperature.Mix 14 mls of BCoR-Cy5 [300 nM] and 14 mls [6 nM] Eu-Streptavidin. Spot 10 μl BCoR-Cy5/SA-Eu (1:1) mix to each well. The plates were incubated for 2 hours and then read on an Envision plate reader.
On the technique in general: Time-resolved FRET reads energy transfer from a long-lived donor to a nearby acceptor.
In general, IC50 refers to the concentration that gives 50% inhibition. Low values mean greater potency in that assay, high ones weaker potency in that assay. With `CNC(=O)COc1cc2cc(Nc3nc(N4CCC(CN5CCC6(CC5)CN(c5cccc(C(=O)NC7CCC(=O)NC7=O)c5F)C6)CC4)ncc3Cl)ccc2n(C(C)C)c1=O` (configuration not stated) [US12310975, Example 419], the IC50 was < 10 nM. The value for `CNC(=O)COc1cc2cc(Nc3nc(N4CCN(CC5CCN(c6cc(OC)cc7c6C(=O)N(C6CCC(=O)NC6=O)C7=O)CC5)CC4)ncc3Cl)ccc2n(C(C)C)c1=O` (configuration not stated) [US12310975, Example 414] was < 10 nM. For `CNC(=O)COc1cc2cc(Nc3cc(N4CCN(CC5CCN(c6ccc7c(c6)C(=O)N(C6CCC(=O)NC6=O)C7=O)CC5)CC4)ncc3Cl)ccc2n(C)c1=O` (configuration not stated) [US12310975, Example 253] the value was < 10 nM.

For `CNC(=O)COc1cc2cc(Nc3nc(N4CCC(OC5CC6(CCN(c7cccc(C(=O)NC8CCC(=O)NC8=O)c7F)CC6)C5)CC4)ncc3Cl)ccc2n(C(C)C)c1=O` (configuration not stated) [US12310975, Example 433], the IC50 is > 100 nM.

As to `CNC(=O)COc1cc2cc(Nc3nc(N4CC5(CCN(CC6CCN(c7cccc8c7C(=O)N(C7CCC(=O)NC7=O)C8=O)CC6)CC5)C4)ncc3Cl)ccc2n(C(C)C)c1=O` (configuration not stated) [US12310975, Example 426], the IC50 is < 10 nM. As to `CNC(=O)COc1cc2cc(Nc3nc(N4CCC(CN5CCCN(c6cccc(N7CCC(=O)NC7=O)c6)CC5)CC4)ncc3Cl)ccc2n(C(C)C)c1=O` [US12310975, Example 498], the 50% inhibitory concentration (IC50) is > 100 nM. As for `CNC(=O)COc1cc2cc(Nc3nc(N4CCC(C5(N6CCC(c7ccc8c(c7)C(=O)N(C7CCC(=O)NC7=O)C8=O)CC6)CC5)CC4)ncc3Cl)ccc2n(C)c1=O` (configuration not stated) [US12310975, Example 482], the half-maximal inhibitory concentration (IC50) is < 10 nM. The value for `Cn1c(=O)c(OC2COC2)cc2cc(Nc3nc(N4CCC(CN5CCN(c6ccc7c(c6)C(=O)N(C6CCC(=O)NC6=O)C7=O)CC5)CC4)ncc3Cl)ccc21` (configuration not stated) [US12310975, Example 223] was > 100 nM; that for `CNC(=O)COc1cc2cc(Nc3cc(N4CCN(C(C)(C)C5CCN(c6ccc7c(c6)C(=O)N(C6CCC(=O)NC6=O)C7=O)CC5)CC4)ncc3Cl)ccc2n(C)c1=O` (configuration not stated) [US12310975, Example 261] was > 100 nM. `CNC(=O)COc1cc2cc(Nc3nc(N4CCN(C(C)(C)C5CCN(c6ccc(OC)c(C(=O)NC7CCC(=O)NC7=O)c6F)CC5)CC4)ncc3Cl)ccc2n(C)c1=O` (configuration not stated) [US12310975, Example 468]: the IC50 is < 10 nM.

`CCC(C1CCN(c2ccc3c(c2)C(=O)N(C2CCC(=O)NC2=O)C3=O)CC1)N1CCN(c2ncc(Cl)c(Nc3ccc4c(c3)cc(OCC(=O)NC)c(=O)n4C)n2)CC1` (configuration not stated) [US12310975, Example 337]: the IC50 was < 10 nM. Consider `CNC(=O)COc1cc2cc(Nc3nc(N4CCC(OC5CC6(CCN(c7cccc(C(=O)NC8CCC(=O)NC8=O)c7OC)CC6)C5)CC4)ncc3Cl)ccc2n(C(C)C)c1=O` (configuration not stated) [US12310975, Example 449], for which the 50% inhibitory concentration (IC50) was > 100 nM.
